Experiments:
Format in all cases: ADME, organism-based
Rattus norvegicus = experiment: Dose normalized AUC (0 to infinity) in Sprague-Dawley rat at 1 mg/kg, po; design: dose 1 mg/kg, route oral, time infinity; conditions: in vivo
[1] = Clearance in Sprague-Dawley rat at 10 mg/kg, po or […], iv; conditions: in vivo
[2] = Volume of distribution at steady state in Sprague-Dawley rat at 10 mg/kg, po or […], iv; conditions: in vivo, read-out: Vdss
[3] = Half life in Sprague-Dawley rat at 10 mg/kg, po or […], iv; conditions: in vivo
[4] = Oral bioavailability in Sprague-Dawley rat at 10 mg/kg; conditions: in vivo

| AUC (Rattus norvegicus) [ng·h/mL] | clearance [1] [mL/min/kg] | Vd [2] [L/kg] | half-life [3] [min] | bioavailability [4] [%] | SMILES |
| --- | --- | --- | --- | --- | --- |
| 514 | 13 | 0.5 | 180 | 40 | Cc1cc(C)c(NC(=O)Nc2cc3ccccc3cc2C(=O)N[C@H](C(=O)O)[C@@H](C)OC(C)(C)C)c(C)c1 |
| 256 | 26 | 1.9 | 240 | 17 | Cc1cc(C)c(NC(=O)Nc2cc3ccccc3cc2C(=O)N[C@@H](COC(C)(C)C)C(=O)O)c(C)c1 |
| 320 | 4 | 0.6 | 168 | 8 | CCCC[C@H](NC(=O)c1cc2ccccc2cc1NC(=O)Nc1c(C)cc(C)cc1C)C(=O)O |
